Test results: ChEMBL document CHEMBL1759905, “Nonsteroidal 2,3-dihydroquinoline glucocorticoid receptor agonists with reduced PEPCK activation” (Bioorg Med Chem Lett, 2011)

Assays:
[1] = molecular target: T1, Glucocorticoid receptor (Homo sapiens) (UniProt P04150); assay: Transrepression activity at glucocorticoid receptor in human NHDF cells assessed as inhibition of IL-1beta-stimulated AP1 dependent IL-6 repression by ELISA relative to Dexamethasone; format: cell-based; set-up: concentration or dose not given beside the values
T1 sequence (whole entry): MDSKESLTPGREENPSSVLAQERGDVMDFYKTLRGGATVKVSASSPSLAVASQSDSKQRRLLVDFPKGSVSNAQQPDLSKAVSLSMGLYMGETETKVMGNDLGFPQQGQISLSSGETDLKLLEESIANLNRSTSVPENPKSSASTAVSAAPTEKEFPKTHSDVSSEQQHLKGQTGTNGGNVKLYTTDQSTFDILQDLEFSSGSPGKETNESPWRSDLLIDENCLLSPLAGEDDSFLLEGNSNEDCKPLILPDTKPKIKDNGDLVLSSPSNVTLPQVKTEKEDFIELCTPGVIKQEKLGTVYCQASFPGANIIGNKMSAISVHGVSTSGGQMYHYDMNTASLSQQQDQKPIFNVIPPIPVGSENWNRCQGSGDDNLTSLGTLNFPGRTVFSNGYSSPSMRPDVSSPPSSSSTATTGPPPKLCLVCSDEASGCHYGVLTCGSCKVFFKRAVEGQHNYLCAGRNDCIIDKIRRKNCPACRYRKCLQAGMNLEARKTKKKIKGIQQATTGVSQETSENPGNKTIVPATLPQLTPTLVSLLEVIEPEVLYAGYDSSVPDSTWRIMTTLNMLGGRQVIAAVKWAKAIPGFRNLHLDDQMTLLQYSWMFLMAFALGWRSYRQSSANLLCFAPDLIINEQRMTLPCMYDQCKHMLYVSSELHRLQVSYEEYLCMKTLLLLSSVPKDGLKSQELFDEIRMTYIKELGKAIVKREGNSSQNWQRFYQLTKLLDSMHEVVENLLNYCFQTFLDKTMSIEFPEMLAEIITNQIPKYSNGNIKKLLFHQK

[2] = molecular target: T1, Glucocorticoid receptor (Homo sapiens); assay: Transrepression activity at glucocorticoid receptor in human HepG2 cells assessed as inhibition of TNFalpha/IL1beta-stimulated NFkappaB-dependent E-selectin repression by luciferase reporter gene assay relative to Dexamethasone; format: cell-based; set-up: scale not given: the % may be the effect or the level left
Glucocorticoid receptor [3] = molecular target: T2, Glucocorticoid receptor (Homo sapiens, UniProt P04150); assay: Transrepression activity at glucocorticoid receptor in human HepG2 cells assessed as inhibition of TNFalpha/IL1beta-stimulated NFkappaB-dependent E-selectin repression by luciferase reporter gene assay; format: cell-based
T2 sequence (P04150 whole entry): T1 sequence (whole entry)

Glucocorticoid receptor [4] = molecular target: T2, Glucocorticoid receptor; assay: Displacement of radiolabeled Dexamethasone from glucocorticoid receptor expressed in baculovirus
Glucocorticoid receptor [5] = molecular target: T2, Glucocorticoid receptor; assay: Transrepression activity at glucocorticoid receptor in human NHDF cells assessed as inhibition of IL-1beta-stimulated AP1 dependent IL-6 repression by ELISA; format: cell-based
[6] = molecular target: T1, Glucocorticoid receptor (Homo sapiens); assay: Agonist activity at glucocorticoid receptor in human HepG2 cells co-transfected with GRE assessed as GRE activation by luciferase reporter gene assay relative to Dexamethasone; format: functional, cell-based; set-up: concentration or dose not given beside the values
[7] = molecular target: T1, Glucocorticoid receptor (Homo sapiens); assay: Agonist activity at glucocorticoid receptor in human HepG2 cells co-transfected with PEPCK assessed as GRE activation by luciferase reporter gene assay relative to Dexamethasone; format: functional, cell-based
Glucocorticoid receptor [8] = molecular target: T2, Glucocorticoid receptor; assay: Agonist activity at glucocorticoid receptor in human HepG2 cells co-transfected with PEPCK assessed as GRE activation by luciferase reporter gene assay; format: functional, cell-based
Glucocorticoid receptor [9] = molecular target: T2, Glucocorticoid receptor; assay: Agonist activity at glucocorticoid receptor in human HepG2 cells co-transfected with GRE assessed as GRE activation by luciferase reporter gene assay; format: functional, cell-based
Androgen receptor = molecular target: T3, Androgen receptor (Homo sapiens, UniProt P10275); assay: Binding affinity to androgen receptor
T3 sequence (P10275 whole entry): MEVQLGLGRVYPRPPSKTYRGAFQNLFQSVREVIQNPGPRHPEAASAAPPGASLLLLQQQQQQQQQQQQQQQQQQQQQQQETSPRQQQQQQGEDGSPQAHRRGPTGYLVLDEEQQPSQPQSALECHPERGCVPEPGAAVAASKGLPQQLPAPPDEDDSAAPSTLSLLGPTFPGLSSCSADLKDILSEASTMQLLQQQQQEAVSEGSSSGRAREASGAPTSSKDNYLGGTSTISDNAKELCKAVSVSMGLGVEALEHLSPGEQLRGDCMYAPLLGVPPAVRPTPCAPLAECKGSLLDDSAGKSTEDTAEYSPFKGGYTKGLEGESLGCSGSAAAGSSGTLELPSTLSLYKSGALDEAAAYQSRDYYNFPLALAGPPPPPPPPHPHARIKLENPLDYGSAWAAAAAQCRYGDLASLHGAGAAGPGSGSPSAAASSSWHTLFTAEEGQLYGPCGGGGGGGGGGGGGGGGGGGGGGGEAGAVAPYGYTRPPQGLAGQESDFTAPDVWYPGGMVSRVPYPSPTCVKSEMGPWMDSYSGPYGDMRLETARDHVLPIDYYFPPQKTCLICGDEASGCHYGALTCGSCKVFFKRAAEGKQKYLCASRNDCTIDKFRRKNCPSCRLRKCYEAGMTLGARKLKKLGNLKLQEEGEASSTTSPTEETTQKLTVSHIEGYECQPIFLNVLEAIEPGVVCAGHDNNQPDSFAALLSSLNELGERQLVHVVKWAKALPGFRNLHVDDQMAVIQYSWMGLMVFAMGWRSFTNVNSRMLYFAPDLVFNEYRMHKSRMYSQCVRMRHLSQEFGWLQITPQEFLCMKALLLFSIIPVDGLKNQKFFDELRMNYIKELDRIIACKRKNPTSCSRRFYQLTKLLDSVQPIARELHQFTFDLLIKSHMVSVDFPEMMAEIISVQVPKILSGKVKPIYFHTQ

Progesterone receptor = molecular target: T4, Progesterone receptor (Homo sapiens, UniProt P06401); assay: Binding affinity to progesterone receptor
T4 sequence (P06401 whole entry): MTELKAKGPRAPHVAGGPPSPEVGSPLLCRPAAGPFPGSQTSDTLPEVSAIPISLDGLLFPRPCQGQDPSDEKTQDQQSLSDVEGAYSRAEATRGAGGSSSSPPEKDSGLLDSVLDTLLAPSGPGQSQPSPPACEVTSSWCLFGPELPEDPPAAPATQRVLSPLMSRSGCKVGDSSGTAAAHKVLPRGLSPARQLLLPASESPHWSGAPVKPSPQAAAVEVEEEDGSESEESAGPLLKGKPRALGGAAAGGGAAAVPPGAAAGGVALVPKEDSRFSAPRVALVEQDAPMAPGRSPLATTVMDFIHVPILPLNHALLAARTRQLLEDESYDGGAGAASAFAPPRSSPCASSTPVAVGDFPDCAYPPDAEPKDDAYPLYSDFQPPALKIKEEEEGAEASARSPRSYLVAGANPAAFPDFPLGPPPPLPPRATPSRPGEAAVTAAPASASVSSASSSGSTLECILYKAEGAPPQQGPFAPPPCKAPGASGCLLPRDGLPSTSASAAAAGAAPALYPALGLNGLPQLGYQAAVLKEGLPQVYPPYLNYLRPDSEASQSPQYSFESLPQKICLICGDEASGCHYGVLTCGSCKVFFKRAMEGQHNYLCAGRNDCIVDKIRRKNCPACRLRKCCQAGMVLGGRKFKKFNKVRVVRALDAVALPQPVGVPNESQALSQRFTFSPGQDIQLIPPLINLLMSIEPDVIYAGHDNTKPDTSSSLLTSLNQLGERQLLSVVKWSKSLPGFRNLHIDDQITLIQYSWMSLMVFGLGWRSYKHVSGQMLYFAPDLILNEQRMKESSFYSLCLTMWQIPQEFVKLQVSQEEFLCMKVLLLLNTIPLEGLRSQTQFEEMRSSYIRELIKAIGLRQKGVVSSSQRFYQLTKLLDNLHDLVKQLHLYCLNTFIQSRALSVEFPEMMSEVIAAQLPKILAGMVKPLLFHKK

SMILES	Activity [1]	Activity [2]	IC50 (Glucocorticoid receptor [3])	Ki (Glucocorticoid receptor [4])	further results
CO/N=C1/c2c(cc(F)c(-c3cccc4c(Cl)c[nH]c34)c2F)NC(C)(C)C1O (stereo not drawn)	99%	100%	0.014 µM	0.0007 µM	IC50 (Glucocorticoid receptor [5]): 0.022 µM
CC1(C)C/C(=N\OC(C)(C)C)c2c(cc(F)c(-c3cccc4cc[nH]c34)c2F)N1	57%	93%	0.0035 µM	0.007 µM	IC50 (Glucocorticoid receptor [5]): 0.04 µM
C[C@]12C=CC(=O)C=C1CC[C@@H]1[C@@H]2[C@@H](O)C[C@@]2(C)[C@H]1CC[C@]2(O)C(=O)CO	–	–	–	–	Activity [6]: 129%
CCO/N=C1\CC(C)(C)Nc2cc(F)c(-c3cccc4cc[nH]c34)c(F)c21	–	91%	0.0069 µM	0.0004 µM	–
COC(=O)C(C)(C)O/N=C1\CC(C)(C)Nc2cc(F)c(-c3cccc4c(C)c[nH]c34)c(F)c21	–	87%	0.022 µM	0.0015 µM	–
CO/N=C1\CC(C)(C)Nc2cc(F)c(-c3cccc4cc[nH]c34)c(F)c21	–	83%	0.042 µM	0.007 µM	–
C[C@H]1c2c(cc(F)c(-c3cccc4cc[nH]c34)c2F)NC(C)(C)[C@@H]1O	90%	–	–	–	Activity [7]: 75%; EC50 (Glucocorticoid receptor [8]): 0.053 µM; Activity [6]: 138%
CC1(C)C/C(=N\O)c2c(cc(F)c(-c3cccc4cc[nH]c34)c2F)N1	–	–	–	0.37 µM	–
Cc1c[nH]c2c(-c3c(F)cc4c(c3F)/C(=N/OC(C)(C)C(=O)O)CC(C)(C)N4)cccc12	–	–	–	2.7 µM	–
Cc1c[nH]c2c(-c3c(F)cc4c(c3F)/C(=N/OCc3ccccc3)CC(C)(C)N4)cccc12	–	74%	0.0088 µM	0.0058 µM	–
CCO/N=C1/c2c(cc(F)c(-c3cccc4c(C)c[nH]c34)c2F)NC(C)(C)C1O (racemic)	97%	98%	0.0026 µM	0.0006 µM	EC50 (Glucocorticoid receptor [9]): 0.0015 µM; Ki (Androgen receptor): 0.43 µM; Activity [7]: 61%; Ki (Progesterone receptor): 0.027 µM; IC50 (Glucocorticoid receptor [5]): 0.0052 µM; EC50 (Glucocorticoid receptor [8]): 0.115 µM; Activity [6]: 138%
Cc1c[nH]c2c(-c3c(F)cc4c(c3F)/C(=N/Oc3ccccc3)CC(C)(C)N4)cccc12	–	67%	0.051 µM	0.031 µM	–
